Test results: ChEMBL document CHEMBL6092215, “A Prostate-Specific Membrane Antigen-Targeting Small Molecule-Drug Conjugate Strategy to Overcome the Hematological Toxicity of Olaparib” (J Med Chem, 2024)
The source made the active and inactive calls. No cut-off for these calls is given here.

Tests used:
[1] = system: CWR22R; assay: Antitumor activity against human 22Rv1 cells xenografted in male BALB/c nude mouse assessed as tumor growth inhibition at 25 mg/kg administered via gavage relative to control; type: functional; conditions: 22Rv1, po, read-out: TGI
[2] = Half-life in Sprague-Dawley rat at 5 mg/kg, iv measured after 24 hrs by UPLC-MS/MS analysis; type: ADME, organism-based; conditions: in vivo
[3] = Subacute toxicity in male ICR mouse assessed as decrease in red blood cells at 195 to 390 mg/kg, po administered via gavage for 30 days by blood routine test; type: organism-based; conditions: in vivo, 720 h, dose 195-390 mg/kg, time 30 day
[4] = system: CWR22R; assay: Antitumor activity against human 22Rv1 cells xenografted in male BALB/c nude mouse assessed as tumor growth inhibition at 50 mg/kg administered via gavage relative to control; type: functional; conditions: 22Rv1, po, read-out: TGI
[5] = Oral bioavailability in Sprague-Dawley rat at 100 mg/kg measured after 24 hrs by UPLC-MS/MS analysis; type: ADME, organism-based; conditions: in vivo
[6] = Drug uptake in PSMA positive human 22Rv1 cells at 10 uM measured after 1 to 6 hrs in presence of PSMA ligand DUPA by LC-MS/MS analysis; type: ADME, cell-based; conditions: cwr22r, time 1-6 hrs
[7] = Tmax in Sprague-Dawley rat at 100 mg/kg, po measured after 24 hrs by UPLC-MS/MS analysis; type: ADME, organism-based; conditions: in vivo
[8] = Subacute toxicity in male ICR mouse assessed as decrease in body weight at 195 to 390 mg/kg, po administered via gavage for 30 days; type: organism-based; conditions: in vivo, 720 h, dose 195-390 mg/kg, time 30 day
[9] = Toxicity in male BALB/c nude mouse xenografted with human 22Rv1 cells assessed as decrease in body weight at 25 to 100 mg/kg administered via gavage; type: organism-based; conditions: in vivo, po, dose 25-100 mg/kg
[10] = system: CWR22R; assay: Antiproliferative activity against human 22Rv1 cells assessed as reduction in cell viability at 125 uM in presence of DUPA; type: functional, cell-based
[11] = Subacute toxicity in male ICR mouse assessed as decrease in hemoglobin at 195 to 390 mg/kg, po administered via gavage for 30 days by blood routine test; type: organism-based; conditions: in vivo, 720 h, dose 195-390 mg/kg, time 30 day
[12] = system: CWR22R; assay: Induction of DNA damage in human 22Rv1 cells assessed as increase in number of gamma-H2AX foci incubated for 12 hrs by DAPI staining based immunofluorescence analysis; type: functional, cell-based; conditions: dose 50-200 µM
[13] = Clearance in Sprague-Dawley rat at 5 mg/kg, iv measured after 24 hrs by UPLC-MS/MS analysis; type: ADME, organism-based; conditions: in vivo
[14] = Volume of distribution in Sprague-Dawley rat at 5 mg/kg, iv measured after 24 hrs by UPLC-MS/MS analysis; type: ADME, organism-based; conditions: in vivo
[15] = system: CWR22R; assay: Antitumor activity against human 22Rv1 cells xenografted in male BALB/c nude mouse administered via gavage; type: functional, cell-based; conditions: dose 195-390 mg/kg
[16] = AUC (0 to t) in Sprague-Dawley rat at 5 mg/kg, iv measured after 24 hrs by UPLC-MS/MS analysis; type: ADME, organism-based; conditions: in vivo
[17] = Toxicity in male BALB/c nude mouse xenografted with human 22Rv1 cells assessed as decrease in lymphocytes at 25 to 100 mg/kg administered via gavage by routine blood test; type: organism-based; conditions: in vivo, po, dose 25-100 mg/kg
[18] = C0 in Sprague-Dawley rat at 5 mg/kg, iv measured after 24 hrs by UPLC-MS/MS analysis; type: ADME, organism-based; conditions: in vivo
[19] = Toxicity in male BALB/c nude mouse xenografted with human 22Rv1 cells assessed as decrease in RBC at 25 to 100 mg/kg administered via gavage by routine blood test; type: organism-based; conditions: in vivo, po, dose 25-100 mg/kg
[20] = Cmax in Sprague-Dawley rat at 100 mg/kg, po measured after 24 hrs by UPLC-MS/MS analysis; type: ADME, organism-based; conditions: in vivo
[21] = system: CWR22R; assay: Antiproliferative activity against human 22Rv1 cells with high PSMA expression assessed as effect on cell viability incubated for 72 hrs by MTT assay; type: functional, cell-based; conditions: 22Rv1, 72 h
[22] = Subacute toxicity in male ICR mouse assessed as decrease in lymphocytes at 195 to 390 mg/kg, po administered via gavage for 30 days by blood routine test; type: organism-based; conditions: in vivo, 720 h, dose 195-390 mg/kg, time 30 day
[23] = system: CWR22R; assay: Antitumor activity against human 22Rv1 cells xenografted in male BALB/c nude mouse assessed as tumor growth inhibition at 100 mg/kg administered via gavage relative to control; type: functional; conditions: 22Rv1, po, read-out: TGI
[24] = system: PC-3; assay: Antiproliferative activity against PSMA negative human PC-3 cells assessed as effect on cell viability incubated for 72 hrs by MTT assay; type: functional
[25] = Drug uptake in PSMA positive human 22Rv1 cells at 10 uM measured after 1 to 6 hrs by LC-MS/MS analysis; type: ADME, cell-based; conditions: cwr22r, time 1-6 hrs
[26] = Antiproliferative activity against PSMA negative human RWPE-1 cells assessed as effect on cell viability incubated for 72 hrs by MTT assay; type: toxicity, cell-based; conditions: RWPE-1 cells (PSMA negative)
[27] = system: CWR22R; assay: Antitumor activity against human 22Rv1 cells xenografted in male BALB/c nude mouse assessed as tumor growth inhibition at 195 to 390 mg/kg administered via gavage relative to control; type: functional; conditions: dose 195-390 mg/kg
[28] = molecular target: Poly [ADP-ribose] polymerase 1 (Homo sapiens, UniProt P09874); assay: Inhibition of PARP1 (unknown origin) by biotinylated NAD+-based luminescence assay
Poly [ADP-ribose] polymerase 1, sequence (P09874 whole entry): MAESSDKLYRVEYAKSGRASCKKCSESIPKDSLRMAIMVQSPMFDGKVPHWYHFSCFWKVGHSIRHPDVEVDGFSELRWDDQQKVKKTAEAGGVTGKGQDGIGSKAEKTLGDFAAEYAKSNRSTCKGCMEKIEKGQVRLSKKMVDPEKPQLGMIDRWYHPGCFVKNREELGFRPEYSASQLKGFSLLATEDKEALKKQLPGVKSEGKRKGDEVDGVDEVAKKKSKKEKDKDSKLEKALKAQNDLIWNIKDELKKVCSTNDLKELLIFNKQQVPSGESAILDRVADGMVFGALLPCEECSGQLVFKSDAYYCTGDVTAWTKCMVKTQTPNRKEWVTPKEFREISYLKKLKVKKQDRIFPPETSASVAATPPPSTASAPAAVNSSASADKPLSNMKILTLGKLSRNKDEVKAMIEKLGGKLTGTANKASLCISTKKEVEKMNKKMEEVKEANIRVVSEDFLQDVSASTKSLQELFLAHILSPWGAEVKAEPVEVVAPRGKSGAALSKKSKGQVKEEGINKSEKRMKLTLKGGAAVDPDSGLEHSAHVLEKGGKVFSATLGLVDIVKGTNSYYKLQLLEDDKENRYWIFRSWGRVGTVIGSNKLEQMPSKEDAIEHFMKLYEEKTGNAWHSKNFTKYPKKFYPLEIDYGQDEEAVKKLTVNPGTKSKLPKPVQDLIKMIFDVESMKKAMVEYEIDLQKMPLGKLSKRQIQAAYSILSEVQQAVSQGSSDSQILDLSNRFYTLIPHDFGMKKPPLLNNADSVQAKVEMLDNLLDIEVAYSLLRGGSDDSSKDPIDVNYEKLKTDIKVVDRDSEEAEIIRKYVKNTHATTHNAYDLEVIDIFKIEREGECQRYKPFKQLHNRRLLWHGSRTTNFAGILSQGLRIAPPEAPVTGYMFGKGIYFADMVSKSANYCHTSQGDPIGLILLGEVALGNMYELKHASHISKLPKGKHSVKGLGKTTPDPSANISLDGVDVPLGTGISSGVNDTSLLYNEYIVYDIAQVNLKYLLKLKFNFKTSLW

[29] = system: CWR22R; assay: Induction of apoptosis in human 22Rv1 cells assessed as increase in cleaved caspase-3 expression at 100 uM incubated for 72 hrs by Western blot analysis; type: functional, cell-based
[30] = Subacute toxicity in male ICR mouse assessed as decrease in neutrophil at 195 to 390 mg/kg, po administered via gavage for 30 days by blood routine test; type: organism-based; conditions: in vivo, 720 h, dose 195-390 mg/kg, time 30 day
[31] = Half-life in Sprague-Dawley rat at 100 mg/kg, po measured after 24 hrs by UPLC-MS/MS analysis; type: ADME, organism-based; conditions: in vivo
[32] = AUC (0 to t) in Sprague-Dawley rat at 100 mg/kg, po measured after 24 hrs by UPLC-MS/MS analysis; type: ADME, organism-based; conditions: in vivo
[33] = system: LNCaP; assay: Antiproliferative activity against human LNCaP cells with high PSMA expression assessed as effect on cell viability incubated for 72 hrs by MTT assay; type: functional, cell-based
[34] = AUC (0 to infinity) in Sprague-Dawley rat at 100 mg/kg, po measured after 24 hrs by UPLC-MS/MS analysis; type: ADME, organism-based; conditions: in vivo
[35] = Toxicity in male BALB/c nude mouse xenografted with human 22Rv1 cells assessed as decrease in WBC at 25 to 100 mg/kg administered via gavage by routine blood test; type: organism-based; conditions: in vivo, po, dose 25-100 mg/kg
[36] = Subacute toxicity in male ICR mouse assessed as decrease in WBC at 195 to 390 mg/kg, po administered via gavage for 30 days by blood routine test; type: organism-based; conditions: in vivo, 720 h, dose 195-390 mg/kg, time 30 day
[37] = Toxicity in male BALB/c nude mouse xenografted with human 22Rv1 cells assessed as decrease in neutrophils at 25 to 100 mg/kg administered via gavage by routine blood test; type: organism-based; conditions: in vivo, po, dose 25-100 mg/kg
[38] = AUC (0 to infinity) in Sprague-Dawley rat at 5 mg/kg, iv measured after 24 hrs by UPLC-MS/MS analysis; type: ADME, organism-based; conditions: in vivo
[39] = Subacute toxicity in male ICR mouse assessed as decrease in hematocrit at 195 to 390 mg/kg, po administered via gavage for 30 days by blood routine test; type: organism-based; conditions: in vivo, 720 h, dose 195-390 mg/kg, time 30 day
[40] = Toxicity in male BALB/c nude mouse xenografted with human 22Rv1 cells assessed as decrease in body weight at 195 to 390 mg/kg administered via gavage; type: organism-based; conditions: in vivo, po, dose 195-390 mg/kg
[41] = Toxicity in male BALB/c nude mouse xenografted with human 22Rv1 cells assessed as decrease in body weight at 175 mg/kg administered via gavage; type: organism-based; conditions: in vivo, po
[42] = system: CWR22R; assay: Antitumor activity against human 22Rv1 cells xenografted in male BALB/c nude mouse assessed as tumor growth inhibition at 175 mg/kg administered via gavage relative to control; type: functional; conditions: 22Rv1, po, read-out: TGI
[43] = Subacute toxicity in male ICR mouse assessed as decrease in body weight at 175 mg/kg, po administered via gavage for 30 days; type: organism-based; conditions: in vivo, 720 h, time 30 day
[44] = Subacute toxicity in male ICR mouse assessed as decrease in red blood cells at 175 mg/kg, po administered via gavage for 30 days by blood routine test; type: organism-based; conditions: in vivo, 720 h, time 30 day
[45] = Subacute toxicity in male ICR mouse assessed as decrease in lymphocytes at 175 mg/kg, po administered via gavage for 30 days by blood routine test; type: organism-based; conditions: in vivo, 720 h, time 30 day
[46] = Subacute toxicity in male ICR mouse assessed as decrease in hematocrit at 175 mg/kg, po administered via gavage for 30 days by blood routine test; type: organism-based; conditions: in vivo, 720 h, time 30 day
[47] = Subacute toxicity in male ICR mouse assessed as decrease in neutrophils at 175 mg/kg, po administered via gavage for 30 days by blood routine test; type: organism-based; conditions: in vivo, 720 h, time 30 day
[48] = Subacute toxicity in male ICR mouse assessed as decrease in hemoglobin at 175 mg/kg, po administered via gavage for 30 days by blood routine test; type: organism-based; conditions: in vivo, 720 h, time 30 day
[49] = system: CWR22R; assay: Antitumor activity against human 22Rv1 cells xenografted in male BALB/c nude mouse at 175 mg/kg administered via gavage; type: functional, organism-based
[50] = Subacute toxicity in male ICR mouse assessed as decrease in WBC at 175 mg/kg, po administered via gavage for 30 days by blood routine test; type: organism-based; conditions: in vivo, 720 h, time 30 day

Compound	half-life [2] [min]	bioavailability [5] [%]	Drug uptake [6]	Tmax [7] [min]	Activity [10]	Activity [12]	clearance [13] [mL/min/kg]	Vd [14] [L/kg]	AUC(0-t) at 24 h [16] [ng·h/mL]	C0 at 24 h [18] [ng/mL]	Cmax [20] [ng/mL]	IC50 [21] [µM]	CC50 [24] [µM]	Drug uptake [25]	CC50 at 72 h [26] [µM]	IC50 [28] [µM]	Activity [29]	half-life [31] [min]	AUC(0-t) at 24 h [32] [ng·h/mL]	IC50 [33] [µM]	also measured
O=C(O)CC[C@H](NC(=O)N[C@@H](CCCCNC(=O)CCC(=O)NC1(C(=O)N2CCN(C(=O)c3cc(Cc4n[nH]c(=O)c5ccccc45)ccc3F)CC2)CC1)C(=O)O)C(=O)O	21.7	18.6	Not_active	60	Not active; Drug Mode Of Action Appears To Be Via Binding To Psma Receptor	Dose-dependent-effect	12.2	0.383	7310	13500	7310	84.5	> 1000	Active	> 1000	0.001	Active; Similar To Olaparib-Treated Group	61	27400	80.6	inhibition in vivo at 25 mg/kg [1]: 52%; Activity [3]: Non-toxic; inhibition in vivo at 50 mg/kg [4]: 65%; Activity [8]: Non-toxic; Activity [9]: Non-toxic; Activity [11]: Non-toxic; Activity [15]: Dose-dependent-effect; Activity [17]: Non-toxic; Activity [19]: Non-toxic; Activity [22]: Non-toxic; inhibition in vivo at 100 mg/kg [23]: 70%; TGI [27]: 73%; Activity [30]: Non-toxic; AUC(0-inf) [34]: 27800 ng·h/mL; Activity [35]: Non-toxic; Activity [36]: Non-toxic; Activity [37]: Non-toxic; AUC(0-inf) [38]: 7460 ng·h/mL; Activity [39]: Non-toxic; Activity [40]: Non-toxic
O=C(O)CC[C@H](NC(=O)N[C@@H](CCCCNC(=O)CCC(=O)N1CCN(C(=O)c2cc(Cc3n[nH]c(=O)c4ccccc34)ccc2F)CC1)C(=O)O)C(=O)O	22.7	11	Not_active	60	Not active; Drug Mode Of Action Appears To Be Via Binding To Psma Receptor	Dose-dependent-effect	12	0.391	7300	12800	5260	133	> 1000	Active	> 1000	0.0019	Active; Similar To Olaparib-Treated Group	54.8	16300	93.9	Activity [41]: Non-toxic; inhibition in vivo at 175 mg/kg [42]: 69%; Activity [43]: Non-toxic; Activity [44]: Non-toxic; Activity [45]: Non-toxic; Activity [46]: Non-toxic; Activity [47]: Non-toxic; Activity [48]: Non-toxic; Activity [49]: Active; AUC(0-inf) [34]: 16500 ng·h/mL; Activity [50]: Non-toxic; AUC(0-inf) [38]: 7460 ng·h/mL
O=C(O)CC[C@H](NC(=O)N[C@@H](CCCCNC(=O)CCN1CCN(C(=O)c2cc(Cc3n[nH]c(=O)c4ccccc34)ccc2F)CC1)C(=O)O)C(=O)O												286	> 1000		> 1000					284	
